Where two headings read alike, the source gives them in different places.
Experiments:
[1] = biological target: Aurora A (Homo sapiens (Human), UniProt O14965); assay: Dundee profiling
[2] = biological target: TAK1 (Homo sapiens (Human), UniProt O43318); assay: Dundee profiling
[3] = biological target: BRK (Homo sapiens (Human), UniProt Q13882); assay: Dundee profiling
[4] = biological target: EPHA5 (Homo sapiens (Human), UniProt P54756); assay: KinomeScan; type: binding; conditions: 1 uM
[5] = biological target: EGFR (L858R, T790M) (Homo sapiens (Human), UniProt P00533, L858R/T790M); assay: KinomeScan; type: binding; conditions: 1 uM
[6] = biological target: NEK2a (Homo sapiens (Human), UniProt P51955); assay: Dundee profiling
Sequence of NEK2a (P51955 whole entry, species assumed): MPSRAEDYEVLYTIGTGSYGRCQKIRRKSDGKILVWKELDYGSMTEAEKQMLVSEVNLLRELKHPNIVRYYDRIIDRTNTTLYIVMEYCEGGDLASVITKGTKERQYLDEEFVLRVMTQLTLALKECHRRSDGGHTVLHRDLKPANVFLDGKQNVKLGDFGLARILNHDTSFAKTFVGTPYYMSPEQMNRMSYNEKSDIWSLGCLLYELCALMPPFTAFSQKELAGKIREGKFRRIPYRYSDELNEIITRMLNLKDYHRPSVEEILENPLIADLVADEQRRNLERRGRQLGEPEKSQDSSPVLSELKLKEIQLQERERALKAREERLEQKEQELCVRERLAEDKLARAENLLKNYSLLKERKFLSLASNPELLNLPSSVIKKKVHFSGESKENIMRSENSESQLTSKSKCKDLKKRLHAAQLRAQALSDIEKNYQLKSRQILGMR

[7] = biological target: LATS2 (Homo sapiens (Human), UniProt Q9NRM7); assay: KinomeScan; type: binding; conditions: 1 uM
[8] = biological target: GSK3b (Homo sapiens (Human), UniProt P49841); assay: Dundee profiling
Sequence of GSK3b (P49841 whole entry, looked up, species assumed): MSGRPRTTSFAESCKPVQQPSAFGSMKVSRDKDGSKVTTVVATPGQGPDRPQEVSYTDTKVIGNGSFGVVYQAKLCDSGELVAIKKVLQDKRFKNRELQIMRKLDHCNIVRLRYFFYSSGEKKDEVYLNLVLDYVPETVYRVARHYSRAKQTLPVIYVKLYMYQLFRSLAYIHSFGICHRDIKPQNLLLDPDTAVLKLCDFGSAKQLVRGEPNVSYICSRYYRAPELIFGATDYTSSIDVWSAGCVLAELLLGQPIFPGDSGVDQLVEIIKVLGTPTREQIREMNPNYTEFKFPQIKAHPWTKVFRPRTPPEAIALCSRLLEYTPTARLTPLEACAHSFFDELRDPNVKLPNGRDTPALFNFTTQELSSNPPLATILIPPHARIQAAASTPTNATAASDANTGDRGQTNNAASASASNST

[9] = biological target: JAK1 (JH1domain-catalytic) (Homo sapiens (Human), UniProt P23458); assay: KinomeScan; type: binding; conditions: 1 uM
Sequence of JAK1 (JH1domain-catalytic) (P23458 875-1153): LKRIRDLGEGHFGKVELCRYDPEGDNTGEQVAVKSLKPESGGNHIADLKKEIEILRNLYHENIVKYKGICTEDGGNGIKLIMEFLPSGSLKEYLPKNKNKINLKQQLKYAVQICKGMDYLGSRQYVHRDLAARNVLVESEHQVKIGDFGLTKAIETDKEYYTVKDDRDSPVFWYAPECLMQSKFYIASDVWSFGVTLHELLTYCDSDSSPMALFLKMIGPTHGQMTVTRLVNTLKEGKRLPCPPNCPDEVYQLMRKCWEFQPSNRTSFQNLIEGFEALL

[10] = biological target: SRPK1 (Homo sapiens (Human), UniProt Q96SB4); assay: Dundee profiling
Sequence of SRPK1 (Q96SB4 whole entry, looked up, species assumed): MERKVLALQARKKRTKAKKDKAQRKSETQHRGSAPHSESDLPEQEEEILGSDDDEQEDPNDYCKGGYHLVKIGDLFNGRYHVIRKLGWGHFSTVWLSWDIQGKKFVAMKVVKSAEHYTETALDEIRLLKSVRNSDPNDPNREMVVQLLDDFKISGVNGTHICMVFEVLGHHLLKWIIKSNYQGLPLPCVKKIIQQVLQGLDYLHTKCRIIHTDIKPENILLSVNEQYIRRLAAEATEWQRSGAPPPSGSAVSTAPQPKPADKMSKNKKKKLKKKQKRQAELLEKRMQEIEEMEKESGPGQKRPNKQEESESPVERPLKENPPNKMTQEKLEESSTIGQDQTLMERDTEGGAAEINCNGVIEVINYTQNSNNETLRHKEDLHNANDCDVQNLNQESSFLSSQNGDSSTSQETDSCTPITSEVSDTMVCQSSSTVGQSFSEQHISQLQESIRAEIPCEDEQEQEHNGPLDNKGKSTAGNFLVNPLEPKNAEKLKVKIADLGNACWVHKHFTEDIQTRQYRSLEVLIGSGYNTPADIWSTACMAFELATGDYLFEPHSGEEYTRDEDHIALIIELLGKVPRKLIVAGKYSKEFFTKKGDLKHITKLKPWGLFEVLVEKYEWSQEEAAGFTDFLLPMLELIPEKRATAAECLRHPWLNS

[11] = biological target: RSK1 (Homo sapiens (Human), UniProt Q15418); assay: Dundee profiling
Sequence of RSK1 (Q15418 whole entry, species assumed): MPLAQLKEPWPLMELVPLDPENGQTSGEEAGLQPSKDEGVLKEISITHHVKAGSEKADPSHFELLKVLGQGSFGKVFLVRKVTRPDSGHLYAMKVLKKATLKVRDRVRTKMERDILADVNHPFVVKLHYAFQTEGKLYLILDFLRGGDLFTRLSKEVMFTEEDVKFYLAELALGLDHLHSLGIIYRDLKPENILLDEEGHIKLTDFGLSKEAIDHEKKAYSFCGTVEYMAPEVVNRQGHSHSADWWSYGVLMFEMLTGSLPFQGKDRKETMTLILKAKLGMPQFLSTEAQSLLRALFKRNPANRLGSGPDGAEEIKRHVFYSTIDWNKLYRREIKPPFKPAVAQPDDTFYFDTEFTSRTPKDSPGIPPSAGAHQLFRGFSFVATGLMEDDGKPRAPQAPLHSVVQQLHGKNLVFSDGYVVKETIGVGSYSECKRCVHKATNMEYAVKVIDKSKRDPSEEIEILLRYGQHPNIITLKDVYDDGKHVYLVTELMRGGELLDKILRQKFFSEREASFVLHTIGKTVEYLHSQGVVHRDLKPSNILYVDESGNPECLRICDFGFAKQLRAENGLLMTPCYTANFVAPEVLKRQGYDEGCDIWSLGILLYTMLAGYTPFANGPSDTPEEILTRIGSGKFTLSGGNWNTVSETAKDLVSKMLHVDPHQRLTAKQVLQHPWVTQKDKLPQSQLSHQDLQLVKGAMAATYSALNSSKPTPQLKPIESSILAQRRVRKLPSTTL

[12] = biological target: MKK2 (Homo sapiens (Human), UniProt P36507); assay: Dundee profiling
Sequence of MKK2 (P36507 whole entry, species assumed): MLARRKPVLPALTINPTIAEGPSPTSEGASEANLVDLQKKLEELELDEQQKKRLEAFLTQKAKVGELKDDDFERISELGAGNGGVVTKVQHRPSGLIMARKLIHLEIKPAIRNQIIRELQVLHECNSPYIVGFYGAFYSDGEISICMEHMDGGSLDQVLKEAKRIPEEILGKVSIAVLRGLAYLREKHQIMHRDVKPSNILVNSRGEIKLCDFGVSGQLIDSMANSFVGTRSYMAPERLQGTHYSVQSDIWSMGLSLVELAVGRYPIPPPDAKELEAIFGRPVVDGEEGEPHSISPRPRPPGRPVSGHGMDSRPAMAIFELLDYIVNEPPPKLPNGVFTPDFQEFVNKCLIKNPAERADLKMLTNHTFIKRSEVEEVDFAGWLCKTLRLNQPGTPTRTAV

[13] = biological target: TYK2 (JH2domain-pseudokinase) (Homo sapiens (Human), UniProt P29597); assay: KinomeScan; type: binding; conditions: 1 uM
Sequence of TYK2 (JH2domain-pseudokinase) (P29597 589-875): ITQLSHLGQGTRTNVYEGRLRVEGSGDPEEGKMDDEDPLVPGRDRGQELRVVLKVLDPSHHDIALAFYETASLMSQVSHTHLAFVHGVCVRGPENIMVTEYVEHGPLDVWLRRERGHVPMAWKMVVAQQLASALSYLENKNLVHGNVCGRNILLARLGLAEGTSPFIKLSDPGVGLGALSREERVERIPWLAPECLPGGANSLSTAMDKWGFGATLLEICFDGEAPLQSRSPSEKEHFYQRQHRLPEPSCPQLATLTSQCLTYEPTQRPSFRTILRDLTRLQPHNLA

[14] = biological target: RSK4 (Kin.Dom.1-N-terminal) (Homo sapiens (Human), UniProt Q9UK32); assay: KinomeScan; type: binding; conditions: 1 uM
Sequence of RSK4 (Kin.Dom.1-N-terminal) (Q9UK32 73-330): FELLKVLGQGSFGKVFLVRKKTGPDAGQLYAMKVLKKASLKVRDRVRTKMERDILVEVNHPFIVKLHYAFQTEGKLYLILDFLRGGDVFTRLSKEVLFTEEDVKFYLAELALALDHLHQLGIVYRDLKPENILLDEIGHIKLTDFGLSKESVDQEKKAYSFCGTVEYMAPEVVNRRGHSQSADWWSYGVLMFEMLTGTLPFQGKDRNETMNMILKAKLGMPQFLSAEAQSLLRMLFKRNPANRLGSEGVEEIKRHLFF

[15] = read-out: percent remaining enzymatic activity, I1, 1 μM
[16] = read-out: percent remaining enzymatic activity, I10

Sequence of Aurora A (O14965 whole entry): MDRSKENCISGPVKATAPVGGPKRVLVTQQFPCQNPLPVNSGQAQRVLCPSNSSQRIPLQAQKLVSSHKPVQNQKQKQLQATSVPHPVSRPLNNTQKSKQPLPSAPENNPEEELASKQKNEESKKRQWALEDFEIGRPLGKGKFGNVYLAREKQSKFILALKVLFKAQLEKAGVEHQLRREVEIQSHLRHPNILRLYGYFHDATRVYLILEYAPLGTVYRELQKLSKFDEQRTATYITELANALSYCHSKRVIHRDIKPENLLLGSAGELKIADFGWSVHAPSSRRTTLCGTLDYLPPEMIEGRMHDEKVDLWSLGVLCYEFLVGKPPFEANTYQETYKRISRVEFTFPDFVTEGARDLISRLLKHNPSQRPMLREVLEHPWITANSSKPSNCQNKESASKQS
Sequence of TAK1 (O43318 whole entry, looked up): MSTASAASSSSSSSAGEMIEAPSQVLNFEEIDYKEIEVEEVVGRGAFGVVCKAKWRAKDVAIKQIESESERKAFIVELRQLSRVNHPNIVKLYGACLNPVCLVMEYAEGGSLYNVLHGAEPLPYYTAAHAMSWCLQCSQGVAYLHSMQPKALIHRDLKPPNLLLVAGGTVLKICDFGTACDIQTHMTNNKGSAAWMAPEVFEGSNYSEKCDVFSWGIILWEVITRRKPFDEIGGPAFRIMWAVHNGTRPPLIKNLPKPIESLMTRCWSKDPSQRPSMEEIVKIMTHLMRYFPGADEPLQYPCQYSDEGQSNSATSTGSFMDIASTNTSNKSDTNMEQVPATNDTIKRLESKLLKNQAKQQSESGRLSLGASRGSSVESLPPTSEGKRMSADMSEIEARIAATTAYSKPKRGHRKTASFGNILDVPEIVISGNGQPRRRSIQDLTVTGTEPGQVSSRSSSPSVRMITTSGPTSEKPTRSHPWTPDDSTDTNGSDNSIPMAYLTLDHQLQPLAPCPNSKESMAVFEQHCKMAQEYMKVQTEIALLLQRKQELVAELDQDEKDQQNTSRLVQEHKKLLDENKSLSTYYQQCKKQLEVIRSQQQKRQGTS
Sequence of BRK (Q13882 whole entry, looked up, species assumed): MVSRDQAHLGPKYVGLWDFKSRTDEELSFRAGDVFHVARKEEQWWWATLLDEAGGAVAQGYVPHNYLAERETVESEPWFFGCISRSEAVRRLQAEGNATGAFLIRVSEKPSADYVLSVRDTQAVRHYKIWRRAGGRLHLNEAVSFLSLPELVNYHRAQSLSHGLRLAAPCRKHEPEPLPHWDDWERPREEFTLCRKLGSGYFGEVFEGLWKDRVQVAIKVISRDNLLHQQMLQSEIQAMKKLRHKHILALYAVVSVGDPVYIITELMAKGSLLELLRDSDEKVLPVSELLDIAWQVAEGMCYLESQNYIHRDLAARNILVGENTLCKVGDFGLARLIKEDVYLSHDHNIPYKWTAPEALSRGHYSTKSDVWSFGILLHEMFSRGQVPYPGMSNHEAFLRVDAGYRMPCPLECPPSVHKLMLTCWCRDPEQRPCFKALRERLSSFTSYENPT

CNc1nc(Nc2ccc(C(=O)N3CCOCC3)cc2OC)nc2[nH]cc(Cl)c12 [Compound 18, (4-((5-chloro-4-(methylamino)-7H-pyrrolo[2,3-d]pyrimidin-2-yl)amino)-3-methoxyphenyl)(morpholino)methanone] was tested, and the remaining activity at 1 µM [1, 15] was 124%, the remaining activity at 1 µM [1, 16] was 112% and the remaining activity at 1 µM [2, 15] was 96%. The remaining activity at 1 µM [2, 16] was 42%, the remaining activity at 1 µM [3, 15] was 62% and the remaining activity at 1 µM [3, 16] was 19%. The KinomeScan value [4] was 98, the KinomeScan value [5] was 100 and the remaining activity at 1 µM [6, 15] was 97%. It also gave a remaining activity at 1 µM [6, 16] of 103%, a KinomeScan value [7] of 93 and a remaining activity at 1 µM [8, 15] of 82%. For the same compound, the remaining activity at 1 µM [8, 16] was 97%, the KinomeScan value [9] was 77 and the remaining activity at 1 µM [10, 15] was 89%. The remaining activity at 1 µM [10, 16] was 31%, the remaining activity at 1 µM [11, 15] was 96% and the remaining activity at 1 µM [11, 16] was 60%. The remaining activity at 1 µM [12, 15] was 101%, the remaining activity at 1 µM [12, 16] was 72% and the KinomeScan value [13] was 100. For the same compound, the KinomeScan value [14] was 93.

From patent publication US10913744B2, “LRRK2 inhibitors and methods of making and using the same” (Dana-Farber Cancer Institute, Inc., priority 2015, dated 2021)
